Experimental data published in patent publication US9689841B2, “Fluorescent pI markers for isoelectric focusing separations and fluorescent labeling” (The Texas A&M University System, priority 2011, dated 2017).
Where two headings read alike, the source gives them in different places.

Key:
[1] = cited from earlier work
[2] = from the two pKa values
Text: An ampholytic compound dissolved in an aqueous buffer can be present in the solution either as a cationic, isoelectric or anionic species, depending on the pH of the solution. In the presence of a nonalternating electric field, the cationic or anionic species migrate electrophoretically toward the cathode or the anode, respectively. At a certain solution pH where the ampholyte becomes isoelectric, the net electrophoretic migration of its band becomes zero. The numeric value of this solution pH is equal to the pI value (isoelectric point) of the ampholyte. The pI value of an ampholyte is a material characteristic that is determined by the structure of the ampholyte (the types and pKa values of its weak and strong electrolyte functional groups). When the ampholyte contains a single acidic group (characterized by pKa^acid) and a single basic group (characterized by pKa^conjugate acid for this conjugate acid form), the pI value of the ampholyte can be calculated as pI=(pKa^acid+pKa^conjugate acid)/2. When an ampholyte contains two acidic groups (characterized by pKa^acid1 and pKa^acid2) and one basic group (characterized by pKa^conjugate acid for its conjugate acid form) with pKa^acid1<pKa^acid2<<pKa^conjugate acid, the pI of the ampholyte lies between pKa^acid1 and pKa^acid2 and is calculated as pI=(pKa^acid1 pKa^acid2)/2. In such cases, the acidic groups between which the pI lies are called the buffering groups, while the basic group is called the titrating group or charge balancing group. Similarly, when an ampholyte contains two basic groups (characterized by pKa^conjugate acid1 and pKa^conjugate acid2 for their conjugate acid forms) and one acidic group (characterized by pKa^acid) with pKa^acid<<pKa^conjugate acid1<pKa^conjugate acid2, the pI of the ampholyte lies between pKa^conjugate acid1 and pKa^conjugate acid2 and is calculated as pI=(pKa^conjugate acid1, pKa^conjugate acid2)/2. In such cases, the two basic groups between which the pI lies are called the buffering groups, while the acidic group is called the titrating group or charge balancing group. When the ampholyte contains multiple buffering groups and multiple titrating or charge balancing groups with relatively close pKa values, the charge contribution of each species needs to be evaluated in order to calculate the pI value.

[3] = first (lower) of the two pKa values
[4] = second (higher) of the two pKa values

| pI [2] | pKa (physchem) | Compound | pKa [1, 3] | pKa [1, 4] |
| --- | --- | --- | --- | --- |
| – | – | O=C(O)c1ccccc1C(=O)O [1,2-benzenedicarboxylic acid] | 2.76 | 4.92 |
| – | – | O=C(O)c1ccc(C(=O)O)cc1 [1,4-benzenedicarboxylic acid] | 3.60 | 4.50 |
| 3.105 | 2.1 | O=C(O)c1ccccn1 [pyridine-2-carboxylic acid] | – | – |
| 3.34 | 1.54 | O=C(O)c1ccncc1 [pyridine-4-carboxylic acid] | 1.8 | 4.88 |

| Compound | pI [2] | pKa (physchem) | pKa [1, 3] | pKa [1, 4] |
| --- | --- | --- | --- | --- |
| O=C(O)c1cccnc1 [pyridine-3-carboxylic acid] | 3.365 | 1.3 | – | – |
